Among the data in the supplement of paper PMC10307832 are relative viability values, retold here.

Test in all cases: relative viability (nuclei count vs DMSO), 5 days (fraction); higher = more cells survive
Compound in assay [1]: C1CNCCC1C2=CC(=NN2)C3=CC=NC=C3 + CCNC(=O)c1noc(-c2cc(C(C)C)c(O)cc2O)c1-c1ccc(CN2CCOCC2)cc1 [Luminespib] (partner 0.01 µM)
The method in brief: (§1)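 Values are medians from duplicate plates. Each reflects relative viability, defined as the nuclei count of treated wells over that of vehicle wells. Lung cancer cell lines in 1536-well plates were pin-tool dosed one day after seeding with one drug alone or with a fixed anchor-drug dose plus five library-drug doses (not always all listed) in √10 steps, then fixed, stained and imaged at 4× after 5 days.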

Compound in assay [2]: C[C@@H](N)c1ccc(C(=O)Nc2ccnc3[nH]ccc23)cc1 + Nc1ncn([C@H]2C[C@H](O)[C@@H](CO)O2)c(=O)n1 [Decitabine] (partner 2 µM)
In a few lines: as §1

Compound in assay [3]: C[C@@H](N)c1ccc(C(=O)Nc2ccnc3[nH]ccc23)cc1 + O=C(CCCCCCC(=O)Nc1ccccc1)NO [Vorinostat] (partner 1 µM)
The method in brief: as §1

Compound in the assay “Tanzisertib + Bortezomib”: O[C@H]1CC[C@H](Nc2ncc3nc(Nc4c(F)cc(F)cc4F)n([C@H]4CCOC4)c3n2)CC1 [Tanzisertib] + CC(C)C[C@H](NC(=O)[C@H](Cc1ccccc1)NC(=O)c1cnccn1)B(O)O [Bortezomib] (partner 0.002 µM)
The method in brief: as §1

Take LXF-289: the relative viability in assay [1] (first compound 0.08 µM) turned out to be 0.804; in assay [1] (first compound 0.8 µM), 0.589; in assay [1] (first compound 2.53 µM), 0.69; in assay [1] (first compound 8 µM), 0.705; in assay [2] (first compound 0.04 µM), 0.406; in assay [2] (first compound 0.1265 µM), 0.362. Besides, the relative viability in assay [2] (first compound 0.4 µM) amounted to 0.362; in assay [2] (first compound 1.265 µM) it was 0.373; in assay [2] (first compound 4 µM) it was 0.331; in assay [3] (first compound 0.04 µM), 0.742; in assay [3] (first compound 0.1265 µM) it was 0.794; in assay [3] (first compound 0.4 µM), 0.816. Besides, the relative viability was 0.876 in assay [3] (first compound 1.265 µM); 0.836 in assay [3] (first compound 4 µM); 1.1 in the assay with Tanzisertib + Bortezomib (first compound 0.08 µM); 1.03 in the assay with Tanzisertib + Bortezomib (first compound 0.253 µM); 1.03 with Tanzisertib + Bortezomib (first compound 0.8 µM); 0.977 in the assay with Tanzisertib + Bortezomib (first compound 2.53 µM). Moreover, in the assay with Tanzisertib + Bortezomib (first compound 8 µM), the relative viability was 1.04.
On to NCI-H23, for which the relative viability in assay [1] (first compound 0.8 µM) was determined as 0.212; in assay [1] (first compound 2.53 µM), 0.213; in assay [1] (first compound 8 µM) it was 0.211; in assay [2] (first compound 0.04 µM), 0.296; in assay [2] (first compound 0.1265 µM), 0.295; in assay [2] (first compound 0.4 µM), 0.363. The relative viability was 0.301 in assay [2] (first compound 4 µM); 0.638 in assay [3] (first compound 0.04 µM); 0.577 in assay [3] (first compound 0.1265 µM); 0.846 in assay [3] (first compound 0.4 µM); 0.658 in assay [3] (first compound 4 µM); 1.18 in the assay with Tanzisertib + Bortezomib (first compound 0.08 µM). Further, the relative viability in the assay with Tanzisertib + Bortezomib (first compound 0.253 µM) stood at 0.979; in the assay with Tanzisertib + Bortezomib (first compound 0.8 µM), 0.875; with Tanzisertib + Bortezomib (first compound 2.53 µM), 1.11; with Tanzisertib + Bortezomib (first compound 8 µM), 1.17.
With NCI-H322M, the relative viability was found to be 0.677 in assay [1] (first compound 0.08 µM); 0.944 in assay [1] (first compound 0.8 µM); 0.904 in assay [1] (first compound 2.53 µM); 1.04 in assay [1] (first compound 8 µM); 0.744 in assay [2] (first compound 0.04 µM); 0.833 in assay [2] (first compound 0.1265 µM). The relative viability in assay [2] (first compound 0.4 µM) was determined as 0.906; in assay [2] (first compound 1.265 µM) it was 0.809; in assay [2] (first compound 4 µM), 0.876; in assay [3] (first compound 0.04 µM), 1.21; in assay [3] (first compound 0.1265 µM) it was 1.04; in assay [3] (first compound 0.4 µM), 1.11. Moreover, the relative viability was 1.05 in assay [3] (first compound 1.265 µM); 1.39 in assay [3] (first compound 4 µM); 1.25 with Tanzisertib + Bortezomib (first compound 0.08 µM); 1.21 in the assay with Tanzisertib + Bortezomib (first compound 0.253 µM); 1.32 in the assay with Tanzisertib + Bortezomib (first compound 0.8 µM); 1.14 with Tanzisertib + Bortezomib (first compound 2.53 µM). Besides, in the assay with Tanzisertib + Bortezomib (first compound 8 µM), the relative viability was 1.18.
Regarding NCI-H441, the relative viability in assay [1] (first compound 0.08 µM) stood at 0.332; in assay [1] (first compound 0.8 µM), 0.312; in assay [1] (first compound 2.53 µM), 0.309; in assay [1] (first compound 8 µM), 0.444; in assay [2] (first compound 0.04 µM) it was 0.276; in assay [2] (first compound 0.1265 µM), 0.279. In addition, the relative viability in assay [2] (first compound 0.4 µM) turned out to be 0.225; in assay [2] (first compound 1.265 µM), 0.258; in assay [2] (first compound 4 µM) it was 0.238; in assay [3] (first compound 0.04 µM), 0.946; in assay [3] (first compound 0.1265 µM), 0.827; in assay [3] (first compound 0.4 µM), 1.03. Also, the relative viability in assay [3] (first compound 1.265 µM) was found to be 0.739; in assay [3] (first compound 4 µM), 0.835; in the assay with Tanzisertib + Bortezomib (first compound 0.08 µM) it was 0.53; with Tanzisertib + Bortezomib (first compound 0.253 µM), 0.409; with Tanzisertib + Bortezomib (first compound 0.8 µM) it was 0.407; with Tanzisertib + Bortezomib (first compound 2.53 µM) it was 0.815. Moreover, the relative viability with Tanzisertib + Bortezomib (first compound 8 µM) stood at 0.471.
NCI-H460: the relative viability in assay [1] (first compound 0.08 µM) is 0.0398; in assay [1] (first compound 0.8 µM), 0.0336; in assay [1] (first compound 2.53 µM), 0.0427; in assay [1] (first compound 8 µM), 0.0305; in assay [2] (first compound 0.04 µM), 0.525; in assay [2] (first compound 0.1265 µM), 0.485. The relative viability in assay [2] (first compound 0.4 µM) was determined as 0.581; in assay [2] (first compound 1.265 µM), 0.575; in assay [2] (first compound 4 µM) it was 0.451; in assay [3] (first compound 0.04 µM) it was 0.86; in assay [3] (first compound 0.1265 µM) it was 0.73; in assay [3] (first compound 0.4 µM), 0.771. The relative viability in assay [3] (first compound 1.265 µM) was determined as 0.949; in assay [3] (first compound 4 µM), 0.702; with Tanzisertib + Bortezomib (first compound 0.08 µM) it was 1.21; with Tanzisertib + Bortezomib (first compound 0.253 µM) it was 1.2; with Tanzisertib + Bortezomib (first compound 0.8 µM), 1.12; in the assay with Tanzisertib + Bortezomib (first compound 2.53 µM) it was 1.07. The relative viability with Tanzisertib + Bortezomib (first compound 8 µM) is 0.965.
As to NCI-H520, the relative viability in assay [1] (first compound 0.08 µM) turned out to be 0.213; in assay [1] (first compound 0.8 µM), 0.196; in assay [1] (first compound 2.53 µM) it was 0.214; in assay [1] (first compound 8 µM), 0.177; in assay [2] (first compound 0.04 µM) it was 0.579; in assay [2] (first compound 0.1265 µM), 0.552. Further, the relative viability in assay [2] (first compound 0.4 µM) came out at 0.61; in assay [2] (first compound 1.265 µM), 0.617; in assay [2] (first compound 4 µM) it was 0.569; in assay [3] (first compound 0.04 µM), 0.862; in assay [3] (first compound 0.1265 µM), 0.757; in assay [3] (first compound 0.4 µM), 0.813. In addition, the relative viability was 0.714 in assay [3] (first compound 1.265 µM); 0.693 in assay [3] (first compound 4 µM); 0.945 in the assay with Tanzisertib + Bortezomib (first compound 0.08 µM); 0.739 with Tanzisertib + Bortezomib (first compound 0.253 µM); 0.606 with Tanzisertib + Bortezomib (first compound 0.8 µM); 0.51 in the assay with Tanzisertib + Bortezomib (first compound 2.53 µM). In addition, in the assay with Tanzisertib + Bortezomib (first compound 8 µM), the relative viability came to 0.446.
In the case of NCI-H596, the relative viability in assay [1] (first compound 0.08 µM) came to 0.967; in assay [1] (first compound 0.8 µM), 1.07; in assay [1] (first compound 2.53 µM) it was 1.11; in assay [1] (first compound 8 µM) it was 1.16; in assay [2] (first compound 0.04 µM) it was 1.02; in assay [2] (first compound 0.1265 µM) it was 1.11. Besides, the relative viability amounted to 1.09 in assay [2] (first compound 0.4 µM); 1.19 in assay [2] (first compound 1.265 µM); 1.13 in assay [2] (first compound 4 µM); 0.596 in assay [3] (first compound 0.04 µM); 0.517 in assay [3] (first compound 0.1265 µM); 0.583 in assay [3] (first compound 0.4 µM). The relative viability came out at 0.654 in assay [3] (first compound 1.265 µM); 0.582 in assay [3] (first compound 4 µM); 1.1 in the assay with Tanzisertib + Bortezomib (first compound 0.08 µM); 0.99 with Tanzisertib + Bortezomib (first compound 0.253 µM); 1.2 in the assay with Tanzisertib + Bortezomib (first compound 0.8 µM); 0.907 with Tanzisertib + Bortezomib (first compound 2.53 µM). Further, the relative viability in the assay with Tanzisertib + Bortezomib (first compound 8 µM) was determined as 1.1.
